pKi: −log10 of the molar value.
Molecular target: Carbonic anhydrase 9 (Homo sapiens, UniProt Q16790)
Description: Inhibition of human recombinant CA9 by CO2 hydration stopped flow assay

Compound | pKi
NS(=O)(=O)c1ccc(NC(=O)CN(CCN(CCN(CC(=O)O)CC(=O)Nc2ccc(S(N)(=O)=O)cc2)CC(=O)O)CC(=O)O)cc1 | 8.08
NS(=O)(=O)c1ccc(CNC(=O)CN(CCN(CC(=O)O)CC(=O)NCc2ccc(S(N)(=O)=O)cc2)CC(=O)O)cc1 | 8.14
NS(=O)(=O)c1cccc(NC(=O)CN(CCN(CC(=O)O)CC(=O)Nc2cccc(S(N)(=O)=O)c2)CC(=O)O)c1 | 8.10
NS(=O)(=O)c1cccc(NC(=O)CN(CCN(CCN(CC(=O)O)CC(=O)Nc2cccc(S(N)(=O)=O)c2)CC(=O)O)CC(=O)O)c1 | 8.02
NS(=O)(=O)c1ccc(NC(=O)CN(CCN(CC(=O)O)CC(=O)Nc2ccc(S(N)(=O)=O)cc2)CC(=O)O)cc1 | 8.11
O=C1NS(=O)(=O)c2ccccc21 [SACCHARIN] | 6.99

The remaining compounds from weak to strong by pKi, led by results:

pKi | Compound
8.06 | NS(=O)(=O)c1ccc(CNC(=O)CN(CCN(CCN(CC(=O)O)CC(=O)NCc2ccc(S(N)(=O)=O)cc2)CC(=O)O)CC(=O)O)cc1
8.07 | NS(=O)(=O)c1nnc(NC(=O)CN(CCN(CC(=O)O)CC(=O)Nc2nnc(S(N)(=O)=O)s2)CC(=O)O)s1
8.08 | NS(=O)(=O)c1nnc(NC(=O)CN(CCN(CCN(CC(=O)O)CC(=O)Nc2nnc(S(N)(=O)=O)s2)CC(=O)O)CC(=O)O)s1
8.09 | NS(=O)(=O)c1ccc(CCNC(=O)CN(CCN(CC(=O)O)CC(=O)NCCc2ccc(S(N)(=O)=O)cc2)CC(=O)O)cc1
8.12 | NS(=O)(=O)c1ccc(CCNC(=O)CN(CCN(CCN(CC(=O)O)CC(=O)NCCc2ccc(S(N)(=O)=O)cc2)CC(=O)O)CC(=O)O)cc1

Molecular target: Carbonic anhydrase 12 (Homo sapiens, UniProt O43570)
Sequence (O43570 whole entry): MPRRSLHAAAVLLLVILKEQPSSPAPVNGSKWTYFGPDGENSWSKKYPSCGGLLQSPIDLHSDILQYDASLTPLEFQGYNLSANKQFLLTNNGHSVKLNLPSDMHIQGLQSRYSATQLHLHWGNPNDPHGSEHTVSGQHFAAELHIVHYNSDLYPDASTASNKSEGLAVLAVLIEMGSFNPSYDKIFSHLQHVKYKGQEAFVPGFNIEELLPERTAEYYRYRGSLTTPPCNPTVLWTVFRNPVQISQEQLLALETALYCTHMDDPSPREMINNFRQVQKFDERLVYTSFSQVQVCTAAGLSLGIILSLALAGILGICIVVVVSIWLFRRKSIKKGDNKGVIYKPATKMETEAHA
Description: Inhibition of human recombinant CA12 by CO2 hydration stopped flow assay

pKi | Compound
6.20 | O=C1NS(=O)(=O)c2ccccc21 [SACCHARIN]

From ChEMBL document CHEMBL1143206, “Carbonic anhydrase inhibitors: copper(II) complexes of polyamino-polycarboxylamido aromatic/heterocyclic sulfonamides are very potent inhibitors of the tumor-associated isoforms IX and XII” (Bioorg Med Chem Lett, 2008)
